In patent US7935674B2, “Indole derivatives” (Mitsubishi Tanabe Pharma Corporation, priority 2005, dated 2011):

Key:
human SGLT2 = target: T1, human SGLT2 (Homo sapiens, UniProt P31639); test: Assay for SGLT2 inhibition (14C-AMG uptake in CHOK1 cells expressing human SGLT2); type: cell-based; conditions: CHOK1 cells expressing human SGLT2; 14C-AMG uptake, 0.5 mM, 2 hours at 37° C.; read-out: IC50
T1 construct: expressed in transfected cells; host or cells: CHOK1 (Chinese hamster ovary) cells, kept under Geneticin selection
T1 sequence (P31639 1-672): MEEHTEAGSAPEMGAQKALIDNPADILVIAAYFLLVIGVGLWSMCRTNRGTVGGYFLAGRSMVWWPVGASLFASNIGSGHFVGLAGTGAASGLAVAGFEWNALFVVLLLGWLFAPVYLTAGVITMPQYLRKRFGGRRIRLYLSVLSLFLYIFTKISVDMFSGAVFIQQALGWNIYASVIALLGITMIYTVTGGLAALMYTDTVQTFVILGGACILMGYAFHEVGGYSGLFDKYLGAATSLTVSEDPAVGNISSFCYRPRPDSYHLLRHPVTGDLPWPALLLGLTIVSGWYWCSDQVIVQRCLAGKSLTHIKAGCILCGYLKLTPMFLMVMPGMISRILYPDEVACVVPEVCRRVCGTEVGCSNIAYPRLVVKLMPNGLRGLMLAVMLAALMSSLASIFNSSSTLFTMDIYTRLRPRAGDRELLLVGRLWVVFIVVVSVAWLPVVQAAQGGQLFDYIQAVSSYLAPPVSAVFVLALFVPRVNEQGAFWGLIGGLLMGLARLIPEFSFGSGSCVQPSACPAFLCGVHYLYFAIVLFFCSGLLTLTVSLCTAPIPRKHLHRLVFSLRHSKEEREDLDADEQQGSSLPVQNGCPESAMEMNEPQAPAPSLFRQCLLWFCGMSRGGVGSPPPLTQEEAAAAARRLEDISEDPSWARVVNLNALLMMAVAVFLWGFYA
Protocol: 1. Assay for SGLT2 Inhibition
Compounds described in the above examples were used for the SGLT2 inhibition assay.
CHOK1 cells expressing human SGLT2 were seeded in 24-well plates at a density of 400,000 cells/well in F-12 nutrient mixture (Ham's F-12) containing 10% fetal bovine serum, 400 μg/ml Geneticin, 50 units/ml sodium penicillin G (Gibco-BRL) and 50 μg/ml streptomycin sulfate. After 2 days of culture at 37° C. in a humidified atmosphere containing 5% CO2, cells were washed once with the assay buffer (137 mM NaCl, 5 mM KCl, 1 mM CaCl2, 1 mM MgCl2, 50 mM Hepes, and 20 mM Tris, pH 7.4) and incubated with 250 μl of the buffer containing test compounds for 10 min at 37° C. Test compounds were dissolved in DMSO. The final concentration of DMSO was 0.5%. The transport reaction was initiated by addition of 50 μl [^14C]-methyl-α-D-glucopyranoside (^14C-AMG) solution (final concentration, 0.5 mM). After incubation for 2 hours at 37° C., the uptake was stopped by aspiration of the incubation mixture, the cells were washed three times with ice-cold PBS. Then, cells were solubilized with 0.3 N NaOH and aliquots were taken for determination of radioactivity by a liquid scintillation counter. Nonspecific AMG uptake was defined as that which occurred in the presence of 100 μM of phlorizin, a specific inhibitor of sodium-dependent glucose cotransporter. Specific uptake was normalized for the protein concentrations measured by the method of Bradford. The 50% inhibitory concentration (IC50) values were calculated from dose-response curves by least square method.

- melting point: 195 to 200 °C
- IC50 (human SGLT2): 2.8 nM
SMILES: Cc1cccc2c1c(Cc1ccc(-c3ccccn3)s1)cn2[C@@H]1O[C@H](CO)[C@@H](O)[C@H](O)[C@H]1O [Example 52, 4-Methyl-3-(5-(2-pyridyl)thiophen-2-yl-methyl)-1-(β-D-gluco-pyranosyl)indole]
